Data reported in ChEMBL document CHEMBL3885881, “DrugMatrix”.

Species on record: Rattus norvegicus
Assay: DrugMatrix - Regimen: Daily Repeat
Format: toxicity, organism-based, Sprague-Dawley
Set-up: regimen Daily Repeat, gender Male, age 6-8 weeks
Settings: in vivo, po, route oral GAVAGE, vehicle .5 % CMC; for BASOPHIL / EOSINOPHIL / ERYTHROCYTE COUNT / HEMATOCRIT / HEMOGLOBIN / LEUKOCYTE COUNT / LYMPHOCYTE / MEAN CORPUSCULAR HEMOGLOBIN / MEAN CORPUSCULAR HEMOGLOBIN CONCENTRATION / MEAN CORPUSCULAR VOLUME / MONOCYTE / NEUTROPHIL / PLATELET COUNT: tissue Blood; for ALANINE AMINOTRANSFERASE / ALBUMIN / ALKALINE PHOSPHATASE / ASPARTATE AMINOTRANSFERASE / BLOOD UREA NITROGEN / CHLORIDE / CHOLESTEROL / CREATINE PHOSPHOKINASE / CREATININE / GLUCOSE / PHOSPHORUS / POTASSIUM / SODIUM / TOTAL BILIRUBIN / TOTAL PROTEIN: tissue Plasma
[1] = 0 mg/kg, 72 h, dose level Control, time 3 day
[2] = 0 mg/kg, 120 h, dose level Control, time 5 day
[3] = 150 mg/kg, 72 h, dose level Low, time 3 day
[4] = 150 mg/kg, 120 h, dose level Low, time 5 day
[5] = 1500 mg/kg, 72 h, dose level High, time 3 day
[6] = 1500 mg/kg, 120 h, dose level High, time 5 day

## C#C[C@]1(O)CC[C@H]2[C@@H]3CCC4=CC(=O)CC[C@]4(C)[C@H]3CC[C@@]21C [ETHISTERONE]
[1]
  BASOPHIL: 0.68%
  EOSINOPHIL: 0.46%
  ERYTHROCYTE COUNT: 7.15 x10E6/uL
  HEMATOCRIT: 45.44%
  HEMOGLOBIN: 14.1 G/DL
  LEUKOCYTE COUNT: 9.78 x10E3/uL
  LYMPHOCYTE: 84.44%
  MEAN CORPUSCULAR HEMOGLOBIN: 19.72 pg
  MEAN CORPUSCULAR HEMOGLOBIN CONCENTRATION: 31 G/DL
  MEAN CORPUSCULAR VOLUME: 63.66 fL
  MONOCYTE: 2.14%
  NEUTROPHIL: 11.16%
  PLATELET COUNT: 1378.2 x10E3/uL
  ALANINE AMINOTRANSFERASE: 42.33 u/L
  ALBUMIN: 3.8 G/DL
  ALKALINE PHOSPHATASE: 388.17 u/L
  ASPARTATE AMINOTRANSFERASE: 68 u/L
  BLOOD UREA NITROGEN: 16.17 mg/dL
  CHLORIDE: 96.67 MEQ/L
  CHOLESTEROL: 71 mg/dL
  CREATINE PHOSPHOKINASE: 156.17 u/L
  CREATININE: 0.57 mg/dL
  GLUCOSE: 193.67 mg/dL
  PHOSPHORUS: 11.43 mg/dL
  POTASSIUM: 7 MEQ/L
  SODIUM: 140.33 MEQ/L
  TOTAL BILIRUBIN: 0.48 mg/dL
  TOTAL PROTEIN: 6.8 G/DL
[2]
  BASOPHIL: 1.47%
  EOSINOPHIL: 1%
  ERYTHROCYTE COUNT: 7.12 x10E6/uL
  HEMATOCRIT: 45.47%
  HEMOGLOBIN: 14.1 G/DL
  LEUKOCYTE COUNT: 11.38 x10E3/uL
  LYMPHOCYTE: 82.57%
  MEAN CORPUSCULAR HEMOGLOBIN: 19.82 pg
  MEAN CORPUSCULAR HEMOGLOBIN CONCENTRATION: 31.02 G/DL
  MEAN CORPUSCULAR VOLUME: 63.88 fL
  MONOCYTE: 2.2%
  NEUTROPHIL: 11.97%
  PLATELET COUNT: 1267 x10E3/uL
  ALANINE AMINOTRANSFERASE: 38 u/L
  ALBUMIN: 3.72 G/DL
  ALKALINE PHOSPHATASE: 391 u/L
  ASPARTATE AMINOTRANSFERASE: 65.83 u/L
  BLOOD UREA NITROGEN: 14.17 mg/dL
  CHLORIDE: 107.67 MEQ/L
  CHOLESTEROL: 61 mg/dL
  CREATINE PHOSPHOKINASE: 148.33 u/L
  CREATININE: 0.57 mg/dL
  GLUCOSE: 177.17 mg/dL
  PHOSPHORUS: 12.07 mg/dL
  POTASSIUM: 7.2 MEQ/L
  SODIUM: 151.5 MEQ/L
  TOTAL BILIRUBIN: 0.58 mg/dL
  TOTAL PROTEIN: 6.72 G/DL
[3]
  BASOPHIL: 0.73%
  EOSINOPHIL: 0.33%
  ERYTHROCYTE COUNT: 6.6 x10E6/uL
  HEMATOCRIT: 41.67%
  HEMOGLOBIN: 13.17 G/DL
  LEUKOCYTE COUNT: 10.76 x10E3/uL
  LYMPHOCYTE: 79.57%
  MEAN CORPUSCULAR HEMOGLOBIN: 19.9 pg
  MEAN CORPUSCULAR HEMOGLOBIN CONCENTRATION: 31.57 G/DL
  MEAN CORPUSCULAR VOLUME: 63.13 fL
  MONOCYTE: 3.47%
  NEUTROPHIL: 14.4%
  PLATELET COUNT: 1218.67 x10E3/uL
  ALANINE AMINOTRANSFERASE: 35.67 u/L
  ALBUMIN: 3.57 G/DL
  ALKALINE PHOSPHATASE: 319.33 u/L
  ASPARTATE AMINOTRANSFERASE: 62.67 u/L
  BLOOD UREA NITROGEN: 13.33 mg/dL
  CHLORIDE: 95.33 MEQ/L
  CHOLESTEROL: 60 mg/dL
  CREATINE PHOSPHOKINASE: 132 u/L
  CREATININE: 0.5 mg/dL
  GLUCOSE: 185.33 mg/dL
  PHOSPHORUS: 12.3 mg/dL
  POTASSIUM: 6.3 MEQ/L
  SODIUM: 138.33 MEQ/L
  TOTAL BILIRUBIN: 0.4 mg/dL
  TOTAL PROTEIN: 6.37 G/DL
[4]
  BASOPHIL: 0.93%
  EOSINOPHIL: 0.27%
  ERYTHROCYTE COUNT: 7.3 x10E6/uL
  HEMATOCRIT: 45.67%
  HEMOGLOBIN: 14.1 G/DL
  LEUKOCYTE COUNT: 8.86 x10E3/uL
  LYMPHOCYTE: 86.5%
  MEAN CORPUSCULAR HEMOGLOBIN: 19.3 pg
  MEAN CORPUSCULAR HEMOGLOBIN CONCENTRATION: 30.87 G/DL
  MEAN CORPUSCULAR VOLUME: 62.6 fL
  MONOCYTE: 2.7%
  NEUTROPHIL: 8.87%
  PLATELET COUNT: 1265.33 x10E3/uL
  ALANINE AMINOTRANSFERASE: 35.67 u/L
  ALBUMIN: 3.6 G/DL
  ALKALINE PHOSPHATASE: 382.67 u/L
  ASPARTATE AMINOTRANSFERASE: 57.67 u/L
  BLOOD UREA NITROGEN: 14.33 mg/dL
  CHLORIDE: 105.67 MEQ/L
  CHOLESTEROL: 39.67 mg/dL
  CREATINE PHOSPHOKINASE: 113.33 u/L
  CREATININE: 0.57 mg/dL
  GLUCOSE: 167 mg/dL
  PHOSPHORUS: 11.77 mg/dL
  POTASSIUM: 7.4 MEQ/L
  SODIUM: 151 MEQ/L
  TOTAL BILIRUBIN: 0.4 mg/dL
  TOTAL PROTEIN: 6.53 G/DL
[5]
  BASOPHIL: 0.3%
  EOSINOPHIL: 0.23%
  ERYTHROCYTE COUNT: 7.32 x10E6/uL
  HEMATOCRIT: 46.8%
  HEMOGLOBIN: 15 G/DL
  LEUKOCYTE COUNT: 13.73 x10E3/uL
  LYMPHOCYTE: 85.93%
  MEAN CORPUSCULAR HEMOGLOBIN: 20.53 pg
  MEAN CORPUSCULAR HEMOGLOBIN CONCENTRATION: 32.13 G/DL
  MEAN CORPUSCULAR VOLUME: 63.97 fL
  MONOCYTE: 2.43%
  NEUTROPHIL: 9.77%
  PLATELET COUNT: 1394 x10E3/uL
  ALANINE AMINOTRANSFERASE: 25.33 u/L
  ALBUMIN: 3.93 G/DL
  ALKALINE PHOSPHATASE: 316.67 u/L
  ASPARTATE AMINOTRANSFERASE: 60.33 u/L
  BLOOD UREA NITROGEN: 13.67 mg/dL
  CHLORIDE: 96 MEQ/L
  CHOLESTEROL: 34 mg/dL
  CREATINE PHOSPHOKINASE: 152 u/L
  CREATININE: 0.43 mg/dL
  GLUCOSE: 166.67 mg/dL
  PHOSPHORUS: 12.2 mg/dL
  POTASSIUM: 6.83 MEQ/L
  SODIUM: 142 MEQ/L
  TOTAL BILIRUBIN: 0.3 mg/dL
  TOTAL PROTEIN: 7.17 G/DL
[6]
  BASOPHIL: 0.93%
  EOSINOPHIL: 0.27%
  ERYTHROCYTE COUNT: 7.53 x10E6/uL
  HEMATOCRIT: 48.07%
  HEMOGLOBIN: 14.97 G/DL
  LEUKOCYTE COUNT: 7.76 x10E3/uL
  LYMPHOCYTE: 80.6%
  MEAN CORPUSCULAR HEMOGLOBIN: 19.97 pg
  MEAN CORPUSCULAR HEMOGLOBIN CONCENTRATION: 31.2 G/DL
  MEAN CORPUSCULAR VOLUME: 63.93 fL
  MONOCYTE: 3.3%
  NEUTROPHIL: 13.73%
  PLATELET COUNT: 1362.33 x10E3/uL
  ALANINE AMINOTRANSFERASE: 31.67 u/L
  ALBUMIN: 3.73 G/DL
  ALKALINE PHOSPHATASE: 496 u/L
  ASPARTATE AMINOTRANSFERASE: 57.33 u/L
  BLOOD UREA NITROGEN: 11 mg/dL
  CHLORIDE: 105.67 MEQ/L
  CHOLESTEROL: 35.33 mg/dL
  CREATINE PHOSPHOKINASE: 132.67 u/L
  CREATININE: 0.57 mg/dL
  GLUCOSE: 185.67 mg/dL
  PHOSPHORUS: 13.8 mg/dL
  POTASSIUM: 7.47 MEQ/L
  SODIUM: 151.33 MEQ/L
  TOTAL BILIRUBIN: 0.33 mg/dL
  TOTAL PROTEIN: 6.83 G/DL
